Data on twelve compounds can be found in PMC8954382, “A Sub-Micromolar MraYAA Inhibitor with an Aminoribosyl Uridine Structure and a (S,S)-Tartaric Diamide: Synthesis, Biological Evaluation and Molecular Modeling” (Molecules, 2022).

Test [1] addresses T1, MraY transferase purified from Aquifex aeolicus (MraYAA) (Aquifex aeolicus, UniProt O66465).
T1 construct: His tag; made in house
Briefly: MraYAA transferase inhibition, fluorescence assay with dansylated UDP-MurNAc-pentapeptide. The note with it: for IC50: inhibition of MraYAA transferase activity, triplicate, repeated at least twice. Format: biochemical. How it is done: The inhibitory activity of the synthesized compounds 2, (S,S)-3a, (R,R)-3b, 4 and 5 was evaluated on MraY transferase purified from Aquifex aeolicus (MraYAA), which was prepared as previously described by Chung et al.. Their activity was compared to the inhibitory activity of the unprotected amino precursor 12, urea-containing inhibitor 13 and C- and N-triazole-containing inhibitors 14 and 15 (Figure 4) that we previously synthesized (Table 1). Commercially available tunicamycin from Streptomyces sp. was used as a positive control in the test.
The inhibitory activity of the synthesized compounds 1–5 was determined as described in Reference. The compounds were evaluated on His-tagged MraY transferase purified from Aquifex aeolicus (MraYAA) prepared as previously described by Chung et al.. The assays were performed as previously described by Stachyra et al. in 96-well plates in a total reaction mixture of 100 µL containing 100 mM of Tris-HCl (pH 7.5), 40 mM MgCl2, 150 µM C55-P, 150 mM NaCl, 25 µM dansylated UDP-MurNAc-pentapeptide and 0.4% of n-dodecyl β-D-maltoside. The reaction was initiated by the addition of pure MraYAA enzyme (10 µL, 0.036 mg/mL). Briefly, MraY catalyzed the formation of lipid I, displaying an apolar environment from polar and hydrosoluble dansylated-UDP-MurNAc-pentapeptide. This modification in the environment of the dansyl probe was accompanied by an enhancement (3.4 times) of fluorescence, as well as a shift of the maximum of fluorescence emission spectrum from 560 nm for the dansylated nucleotidic substrate to 530 nm for the dansylated lipid product (see Figure 2 in Stachyra et al.. This property was exploited to develop an HTS assay and to assess MraY activity by using an Enspire fluorescence microplate reader (Perkin-Elmer, Courtaboeuf, France). The fluorescence measurement was read every two minutes at 37 °C, under shaking during 60 min; the excitation wavelength and the emission wavelength were 340 nm and 530 nm, respectively. Experiments were performed in triplicate, and each experiment was repeated at least twice. In each case, the fluorescence of a control sample without enzyme was subtracted, initial velocity was calculated and percent inhibition was deduced. IC50 values were determined from plots of the percent inhibition versus the inhibitor concentration, and data were processed on Excel software.

The subject of test [2] is Enterococcus faecium ATCC 19434. Briefly: Antibacterial activity, MIC by broth microdilution. Format: cell-based. Particulars: Gram +. How it is done: (§1) Even if our goal was to improve the MraY inhibitory activity of the reference urea 13, and that was successfully achieved, the antibacterial activity of MraY inhibitors 2–5 was also evaluated against several bacterial strains. Gram-negative (E. coli ATCC 8730, C. freundii ATCC8090 and P. aeruginosa ATCC 27853) and Gram-positive pathogenic bacterial strains (S. aureus ATCC 25923 and E. faecium ATCC 19434), including a methicillin resistant strain (S. aureus MRSA ATCC 43300), were selected as representative of pathogen bacterial diversity. Piperacillin and vancomycin were used as positive controls in the tests. […] Therefore, further optimization of the lipophilic side chain is still required to increase the antibacterial activity by modulating the lipophilicity of the molecule.
(§2) Tests were made according to the procedure described in Reference, following EUCAST (European Committee on Antimicrobial Susceptibility testing)/CLSI (Clinical and Laboratory Standard Institute) recommended procedure. This microtitration plate size allows direct detection of bacterial growth in a relatively small volume, without the use of a spectrophotometer or the addition of dyes. Molecules were solubilized in 100% DMSO (cell culture grade) at 20.48 mg/mL concentration and 40-fold diluted in MHB to reduce DMSO concentration in the antibacterial test, just before utilization. The MHB-diluted solutions were then serially two-fold diluted in MHB, at final concentration ranging from 128 to 1 µg/mL. Bacterial inoculums were prepared for each strain, resuspending isolated colonies from 18 h cultured plates. Equivalents of 0.5 Mac Farland turbidity standard (approximately 1.108 CFU/mL) were prepared in saline solution (NaCl […]) and diluted 200-fold in MBH. The bacterial suspensions were then added to microplates containing the diluted molecules. Microtitration plates were incubated overnight at 37 °C. MICs were determined as the lowest dilution of product showing no visual turbidity.
(Dilution methods test growth across graded concentrations, often in twofold steps.)

For test [3], the system named is Staphylococcus aureus MRSA ATCC 43300. Briefly: Antibacterial activity, MIC by broth microdilution. Format: cell-based. Particulars: Gram +. On the procedure:
as §1, §2

The subject of test [4] is Citrobacter freundii ATCC 8090. As to the kind of experiment: Antibacterial activity, MIC by broth microdilution. Format: cell-based. Particulars: Gram -. How it is done:
as §1, §2

Test [5] relates to Staphylococcus aureus ATCC 25923. As to the kind of experiment: Antibacterial activity, MIC by broth microdilution. Format: cell-based. Particulars: Gram +. On the procedure: as §1, §2
For test [6], the system named is Pseudomonas aeruginosa ATCC 27853. As to the kind of experiment: Antibacterial activity, MIC by broth microdilution. Particulars: Gram -. Format: cell-based. On the procedure:
as §1, §2

Test [7] deals with Escherichia coli ATCC 8730. Briefly: Antibacterial activity, MIC by broth microdilution. Format: cell-based. The note with it: Gram -. How it is done: as §1, §2
The subject of test [8] is MraY. Particulars: Table 2, known inhibitor, cited from earlier work.
The subject of test [9] is six selected bacterial species. On the set-up: method as in PMID 34115086. Particulars: previously reported; ref [32]; cited from earlier work.

Read-outs that look alike come from different tables or passages of the source.

T1 sequence (O66465 whole entry): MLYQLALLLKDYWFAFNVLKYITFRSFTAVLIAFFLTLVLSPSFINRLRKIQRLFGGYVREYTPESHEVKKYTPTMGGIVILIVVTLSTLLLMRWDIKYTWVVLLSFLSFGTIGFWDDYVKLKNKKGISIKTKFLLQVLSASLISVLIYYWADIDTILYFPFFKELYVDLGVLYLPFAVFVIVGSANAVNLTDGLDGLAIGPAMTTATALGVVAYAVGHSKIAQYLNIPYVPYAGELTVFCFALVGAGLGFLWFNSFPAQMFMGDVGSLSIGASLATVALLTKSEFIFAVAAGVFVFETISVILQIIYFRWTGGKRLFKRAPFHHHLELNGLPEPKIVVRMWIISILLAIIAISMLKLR

Broadly, the IC50 is the concentration needed to halve the response being measured. In test [1], `CCCCCCCCCCNC(=O)C(O)C(O)C(=O)NCC(OC1OC(CN)C(O)C1O)C1OC(n2ccc(=O)[nH]c2=O)C(O)C1O` [(R,R)-3b] returned an IC50 of 1380 ± 50 nM. The “CMI” value in [2] is more than 128 µg/mL; in test [3] it was more than 128 µg/mL; in test [4], more than 128 µg/mL; in test [5] it was 128 µg/mL; in [6], more than 128 µg/mL; in [7] it was more than 128 µg/mL.

As to `CCCCCCCCCCCCCCCCC[C@H]1CN(C)[C@@H]([C@H](O[C@@H]2O[C@H](CN)[C@@H](O)[C@H]2O)[C@H]2O[C@@H](n3ccc(=O)[nH]c3=O)[C@H](O)[C@@H]2O)C(=O)N(C)[C@@H]1C(=O)O` [Carbacaprazamycin], the concentration for half-maximal inhibition (IC50) in test [8] (ref [31]) is 104 nM.

In the case of `CCCCCCCCCCNc1c(NCC(OC2OC(CN)C(O)C2O)C2OC(n3ccc(=O)[nH]c3=O)C(O)C2O)c(=O)c1=O` (stereo not drawn) [Compound 2], in test [1], the IC50 stood at 17970 ± 40 nM. Further, the “CMI” value in test [2], in test [3], in test [4], in [5], in [6] and in test [7] was more than 128 µg/mL each time.

With `CCCCCCCCCCC(=O)NCC(OC1OC(CN)C(O)C1O)C1OC(n2ccc(=O)[nH]c2=O)C(O)C1O` (stereo not drawn) [Compound 4], 6490 ± 210 nM corresponded to half-maximal inhibition in test [1] (IC50). Moreover, the “CMI” value in test [2] was 128 µg/mL; in [3], 128 µg/mL; in [4], more than 128 µg/mL; in test [5], 128 µg/mL; in [6] it was more than 128 µg/mL; in test [7] it was more than 128 µg/mL.

Turning to `CCCCCCCCCCS(=O)(=O)NCC(OC1OC(CN)C(O)C1O)C1OC(n2ccc(=O)[nH]c2=O)C(O)C1O` (stereo not drawn) [Compound 5], the IC50 in test [1] is 2910 ± 130 nM. The “CMI” value in test [2], in test [3], in test [4], in test [5], in test [6] and in test [7] was more than 128 µg/mL each time.

Take `NC[C@H](O[C@@H]1O[C@H](CN)[C@@H](O)[C@H]1O)[C@H]1O[C@@H](n2ccc(=O)[nH]c2=O)[C@H](O)[C@@H]1O` [Compound 12, reference compound]: it took 50300 ± 3270 nM to reach half-maximal inhibition in [1] (IC50).

In [1], `CCCCCCCCCCNC(=O)NC[C@H](O[C@@H]1O[C@H](CN)[C@@H](O)[C@H]1O)[C@H]1O[C@@H](n2ccc(=O)[nH]c2=O)[C@H](O)[C@@H]1O` [Compound 13, reference compound] came in with an IC50 of 1930 ± 130 nM. Further, the “CMI” value in test [2], in [3], in test [4], in test [5], in test [6] and in test [7] was more than 128 µg/mL throughout. In addition, in test [9], the antibacterial activity result is “does not display antibacterial activity”.

In turn, `CCCCCCCCCCNC(=O)C(O)C(O)C(=O)NCC(OC1OC(CN)C(O)C1O)C1OC(n2ccc(=O)[nH]c2=O)C(O)C1O` [Compound (S,S)-3a] yielded an IC50 in test [1] of 370 ± 10 nM. For the same compound, the “gain in activity (factor) as compared to the reference compound 13 with an urea linker” value in test [1] (ratio of MraYAA IC50 values) is on record as 5. Moreover, the “CMI” value in [2] is more than 128 µg/mL; in [3], more than 128 µg/mL; in [4], more than 128 µg/mL; in test [5] it was 128 µg/mL; in test [6], more than 128 µg/mL; in test [7], more than 128 µg/mL.

On to `CC(C)C[C@H](NC(=O)[C@@H](NC(=O)N[C@H](C(=O)O)C(C)C)[C@@H]1CCN=C(N)N1)C(=O)NCCCN[C@H](C(=O)O)[C@H](O[C@@H]1O[C@H](CN)[C@@H](O)[C@H]1O)[C@H]1O[C@@H](n2ccc(=O)[nH]c2=O)[C@H](O)[C@@H]1O` [Muraymycin D2], for which the IC50 in test [8] (ref [41]) was 46 nM.

In the case of `CCN1CCN(C(=O)N[C@@H](C(=O)N[C@@H]2C(=O)N3[C@@H]2SC(C)(C)[C@@H]3C(=O)O)c2ccccc2)C(=O)C1=O` [Piperacillin, reference compound], the “CMI” value was 4 µg/mL in [2]; more than 128 µg/mL in test [3]; 4 µg/mL in test [4]; 4 µg/mL in [5]; 8 µg/mL in [6]; 4 µg/mL in [7].

In the case of `CN[C@H](CC(C)C)C(=O)N[C@H]1C(=O)N[C@@H](CC(N)=O)C(=O)N[C@H]2C(=O)N[C@H]3C(=O)N[C@H](C(=O)N[C@H](C(=O)O)c4cc(O)cc(O)c4-c4cc3ccc4O)[C@H](O)c3ccc(c(Cl)c3)Oc3cc2cc(c3O[C@@H]2O[C@H](CO)[C@@H](O)[C@H](O)[C@H]2O[C@H]2C[C@](C)(N)[C@H](O)[C@H](C)O2)Oc2ccc(cc2Cl)[C@H]1O` [Vancomycin, reference compound], the “CMI” value in test [2] turned out to be 0.5 µg/mL; in test [3], 1 µg/mL; in [5] it was 1 µg/mL.

With Tunicamycin [reference compound], the half-maximal inhibitory concentration (IC50) in test [1] was 26 nM.
